We go through one substance from US4487763A, “Peptide, process for preparation thereof and use thereof” (Fujisawa Pharmaceutical Co., Ltd., priority 1979, dated 1984).

One assay relates to E. coli 22. Kind of assay: Protective efficacy in experimental infection in mice. The assay is classed as in vivo. The conditions noted are these: male ICR mice, survival after four days. The method, then: In determining the protective efficacy against experimental infections in mice, the test compound was dissolved in and diluted with sterile saline to provide prescribed concentrations of drug.
Male ICR-strain mice, aged 4 weeks were used in groups of ten mice. E. coli 22 was cultivated overnight at 37° C. on trypticase soy agar and then were suspended in a sterile saline to obtain microbial cell concentration of 9.0×10^7 CFU/ml. Mice were inoculated intraperitoneally with 0.2 ml of the suspension. Each of the test drugs was given intraperitoneally in various doses to a group of ten mice 24 hours before challenge.
Survival percent were found from the number of the surviving animals after four days of injection.

The subject of another assay is Mice (DDY male 5-6 W). Put plainly: Blood stream clearance of carbon. The assay is classed as in vivo. The conditions noted are these: carbon clearance measured 24 hours later. The method, then:
1. Carbon suspension. Rotoring drawing ink (170 mg carbon/ml.) was diluted to 1/5 of the original concentration in saline containing 1% gelatin. 2. 0.1% aqueous sodium carbonate solution. Mice (DDY male 5-6 W) were injected via the tail vein with a dose of 0.01 ml/g body weight of carbon. Blood samples were taken by means of a pointed capillary […] calibrated to hold a 50 μl and previously washed in heparin. This was plunged into the retroorbital venous sinus at the nasal angle of the eye. The samples were removed at 3 and 6 min. The blood was immediately discharged into 3.0 ml. of the sodium carbonate solution. This hemolyzed the blood and allowed the quantitation of carbon. The samples were then read in a spectrophotometer at 660 nm, the log concentration being obtained from a previously determined standard curve. The clearance value K may be determined by plotting log carbon concentration against time according to the following relationship; [formula] in which T1 and T2 represent the time in min when the sample were withdrawn and C1 and C2 represent the concentrations of carbon in the blood at the time T1 and T2, respectively. The aqueous solution of the drug as given was administered subcutaneously to mice. Twenty four hours later, blood stream clearance of carbon was measured. K value obtained with treated mice was compared with that of control mice.

On to “D-Lac-L-Ala-γ-D-Glu(α-OH)-(L)-[D-Lac-L-Ala-γ-D-Glu(α-OH)-(L)-mesoDAP-(D)-Gly]-(D)-mesoDAP-(L)-GlyOH [Example 13 (Step 2)]”, for which the “Survival (%)” value in the assay on E. coli 22 (dose 1 mg/kg intraperitoneally 24 hours before challenge) and in the assay on E. coli 22 (dose 10 mg/kg intraperitoneally 24 hours before challenge) was 100% each time. Also, the figures for the “K treated/K control” value in the assay on Mice (DDY male 5-6 W) (dose 1 mg/mouse subcutaneously) and in the assay on Mice (DDY male 5-6 W) (dose 100 mg/mouse subcutaneously) were 0.6 and 1.6, respectively.
